The results in this text go back to patent US10214724B2, “Methods for differentiation of human pluripotent stem cells to brain microvascular endothelial cells” (Wisconsin Alumni Research Foundation, priority 2016, dated 2019).

Test [1] relates to IMR90-4 induced pluripotent stem cells. The test can be described thus: Brachyury expression after CHIR99021 treatment (immunostaining, flow cytometry). It counts as cell-based, human. The note with it: 6 μM, 24 hr treatment in DeSR1; IMR90-4 iPSCs. Here is the method:
Given the roles of canonical Wnt signaling in both mesoderm specification and BBB development, we first treated hPSCs with CHIR99021, a GSK-3β inhibitor and Wnt agonist, to direct hPSCs to mesoderm-derived endothelial progenitors. Prior to treatment, IMR90-4 induced pluripotent stem cells (iPSCs) were seeded on a Matrigel-coated six-well plate at a density of 35×10^3 cells/cm^2 and expanded in an undifferentiated state for three days in mTeSR1™ (FIG. 1A). […] After 24 hours, the medium was removed and cells were transitioned to DeSR2 (DeSR1 plus B27 supplement) for another five days with daily medium changes. At day 0, pluripotency was verified by OCT4, NANOG and TRA-1-60 immunostaining (FIGS. 1B-D). After 24 hr of CHIR99021 treatment, almost 100% of the cells expressed brachyury, assessed by immunostaining (FIG. 1E) and flow cytometry (FIG. 1F), indicating progression to primitive streak. […] At day 4, more than 90% of the cells expressed the intermediate mesoderm marker PAX2 (FIGS. 1G, 1H) and PAX2 expression peaked at day 6 (FIG. 5). […]
Cells were dissociated with Accutase™ and fixed in 1% PFA for 15 min at room temperature, then washed with 0.5% BSA (Bio-Rad) plus 0.1% Triton-X100 three times. […] Data were collected on a FACSCaliber flow cytometer (Beckton Dickinson) and analyzed using FlowJo. […]
In general terms: In flow cytometry, cells or beads pass a laser one at a time.

Test [2] deals with hPSC-derived BMECs. The test can be described thus: TEER of hPSC-derived BMECs on Transwells. It counts as cell-based, human. Conditions: cells differentiated in the presence of RA; replated day 8, measured at day 10. Here is the method: BMECs were differentiated as shown in FIG. 1A in the presence or absence of RA, as indicated. (A) At day 8 expression of tight junction and transporter genes was assessed by qPCR. (B) Flow cytometry for CD31 expression was performed at days 6 and 8. (C) Pgp expression was quantified by flow cytometry at day 10. At day 6, medium was switched to hESFM containing or lacking RA, as indicated. (D) At day 8, cells were replated onto Matrigel®-coated Transwell® membranes at 10^6 cells/cm^2 in the presence or absence of 10 μM Y27632 (ROCK inhibitor). Y27632 was added to increase attachment (Pipparelli et al., PloS one 2013, 8:e62095) of cells differentiated in the absence of RA and permit confluent monolayer formation. TEER was measured at day 10, two days after replating (D). (E, G) Occludin and (F, G) ZO-1 expression and localization were assessed by flow cytometry and immunostaining at day 10. Red arrows indicate non-uniform occludin or ZO-1. Claudin-5 expression at day 10 was assessed by flow cytometry (H, I). (I) At day 10, expression level of claudin-5 in BMECs differentiated in the presence or absence of RA were assessed by flow cytometry. (J) Localization and expression of claudin-5 of cells differentiated in the absence of RA was determined via immunostaining (white arrows indicate non-positive claudin-5 and red arrows indicate discontinuous claudin-5). […]

Test [3] deals with tight junction related genes TJP1, CLDN5 and OCLN and efflux transporters ABCG2, ABCC1, and ABCB1. Briefly: Quantitative RT-PCR of tight junction and transporter genes with or without RA. The note with it: 10 μM RA day 6 to day 8; qPCR at day 8. Type of test: cell-based, human.
Experimental: Total RNA was extracted with the RNeasy mini kit (QIAGEN) and treated with DNase (QIAGEN). 1 μg total RNA was reverse transcribed into cDNA via Oligo (dT) with Superscript III Reverse Transcriptase (Invitrogen). Real-time quantitative PCR was done in triplicate with iQSYBR Green™ SuperMix (Bio-Rad). GAPDH was used as an endogenous housekeeping control.
The test system of test [4] is hPSC-derived BMECs. The test can be described thus: Flow cytometry of BMEC marker proteins (claudin-5, Pgp, occludin, ZO-1) with or without RA. It counts as cell-based, human. The text has this:
Data were collected on a FACSCaliber flow cytometer (Beckton Dickinson) and analyzed using FlowJo.

In test [5] the test system is hPSC-derived BMECs. The test can be described thus: ICAM-1 induction by TNF-α. The note with it: 10 ng/mL TNF-α for 16 hours; day 10 hPSC-derived BMECs.
Experimental: (D-F) ICAM-1 induction in hPSC-derived BMECs. hPSC-derived BMECs at day 10 were treated with 10 ng/mL of TNF-α for 16 hours. Cells were stained for ICAM-1 (D) before and (E) after TNF-α treatment. (F) Cells were dissociated or dissociated with Accutase™ and ICAM-1 expression quantified by flow cytometry before and after TNF-α treatment. […] Data were collected at least from three independent samples and are represented as mean±SEM. **p<0.01, ***p<0.001.

Take `Cc1c[nH]c(-c2cnc(NCCNc3ccc(C#N)cn3)nc2-c2ccc(Cl)cc2Cl)n1` [CHIR99021]: in test [1], the cells expressing brachyury is on record as about 100%.
For `CC1=C(/C=C/C(C)=C/C=C/C(C)=C/C(=O)O)C(C)(C)CCC1` [RA, retinoic acid], the TEER with hPSC-derived BMECs [2] is ~4000 Ω·cm^2. Moreover, the “expression of TJP1, CLDN5, OCLN, ABCG2, ABCC1 and ABCB1 in cells exposed to RA vs. lacking RA” value in test [3] was 3-20 fold. The “cells expressing claudin-5” value in the test with hPSC-derived BMECs [4] (RA-treated cells, day 10, flow cytometry (around 60% in the absence of RA)) was found to be 100%. In the test with hPSC-derived BMECs [4] (differentiated in the presence of RA, day 10, flow cytometry), the “cells expressing Pgp” value is given as about 100%.
Take TNF-α: the ICAM-1 expression entry in the test on hPSC-derived BMECs [5] is on record as “upregulation”.
